The EC50 is the concentration at which the effect is half-maximal. The term IC50 denotes the concentration needed to halve the response being measured. The term ED50 denotes the midpoint of the dose-response relation. A lower ED50 goes with greater potency.

The record followed here is ChEMBL document CHEMBL1138336, “Design and synthesis of novel and potent amide linked PPARgamma/delta dual agonists” (Bioorg Med Chem Lett, 2007).

Experiment [1] concerns the target T1, Peroxisome proliferator-activated receptor delta (Homo sapiens, UniProt Q03181).
T1 sequence (Q03181 whole entry): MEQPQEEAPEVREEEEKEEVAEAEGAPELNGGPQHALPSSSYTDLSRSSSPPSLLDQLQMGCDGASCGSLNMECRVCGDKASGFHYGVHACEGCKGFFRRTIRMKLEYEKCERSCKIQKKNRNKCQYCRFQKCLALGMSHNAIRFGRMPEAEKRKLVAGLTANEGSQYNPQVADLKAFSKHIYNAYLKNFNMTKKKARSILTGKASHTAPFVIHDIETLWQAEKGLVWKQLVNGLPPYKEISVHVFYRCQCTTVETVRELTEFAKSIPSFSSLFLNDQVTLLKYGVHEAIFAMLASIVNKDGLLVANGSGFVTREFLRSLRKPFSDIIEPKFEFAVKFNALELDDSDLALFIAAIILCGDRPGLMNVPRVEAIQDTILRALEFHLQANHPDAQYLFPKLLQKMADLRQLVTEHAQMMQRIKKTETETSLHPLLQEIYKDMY

Experiment [2] addresses T1, Peroxisome proliferator-activated receptor delta. The source holds these as a separate data set.
Experiment [3] deals with T2, Peroxisome proliferator-activated receptor alpha (Homo sapiens, UniProt Q07869).
T2 sequence (Q07869 whole entry): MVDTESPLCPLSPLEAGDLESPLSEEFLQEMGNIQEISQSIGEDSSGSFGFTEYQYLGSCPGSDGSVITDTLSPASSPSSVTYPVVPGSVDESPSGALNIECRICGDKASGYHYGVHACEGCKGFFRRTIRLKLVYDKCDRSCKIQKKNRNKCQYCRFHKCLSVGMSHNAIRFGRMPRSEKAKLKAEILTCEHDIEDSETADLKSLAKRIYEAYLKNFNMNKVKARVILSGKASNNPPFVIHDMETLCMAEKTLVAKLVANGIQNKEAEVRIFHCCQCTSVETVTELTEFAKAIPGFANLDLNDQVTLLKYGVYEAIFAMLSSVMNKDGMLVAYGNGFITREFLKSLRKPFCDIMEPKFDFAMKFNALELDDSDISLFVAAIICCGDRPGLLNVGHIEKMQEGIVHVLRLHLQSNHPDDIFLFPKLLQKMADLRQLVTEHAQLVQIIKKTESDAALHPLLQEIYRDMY

The target of experiment [4] is T2, Peroxisome proliferator-activated receptor alpha. This is another data set of the same source.
A further experiment is filed under the species Rattus norvegicus. Nature of the experiment: animal or person. The following applies: ZDF, po, 168 h. The format is functional.

As to `Cc1cc(Oc2cccc(CNC(=O)c3ccc(C(F)(F)F)cc3C)c2)ccc1CCC(=O)O`, the EC50 in experiment [1] amounted to 0.033 µM; in experiment [3], 2.89 µM. The figures for the IC50 in experiment [2] and in experiment [4] were 0.005 µM and above 10 µM, respectively.
Turning to `Cc1cc(Oc2cccc(CNC(=O)c3c(C)c4cc(Cl)ccc4n3C)c2)ccc1CCC(=O)O`, the EC50 is 0.004 µM in experiment [1] and 2.65 µM in experiment [3]. Further, the IC50 in experiment [2] is 0.003 µM; in experiment [4], above 10 µM.
As for `CCc1cc(Oc2cc(F)cc([C@@H](C)NC(=O)c3c(C)c4cc(Cl)ccc4n3C)c2)ccc1CCC(=O)O`, the EC50 in experiment [3] was found to be 2.82 µM. This compound also gave an IC50 in experiment [4] of 10.3 µM. The same compound yielded an ED50 in the experiment filed under Rattus norvegicus of 0.82 mg/kg.
As for `Cc1cc(Oc2cccc(CNC(=O)c3cc4cc(Cl)ccc4n3C)c2)ccc1CCC(=O)O`, the EC50 was determined as 0.087 µM in experiment [1] and 2.74 µM in experiment [3]. Besides, the IC50 is 0.003 µM in experiment [2] and above 10 µM in experiment [4].
Take `CCc1cc(Oc2cc(F)cc([C@@H](C)NC(=O)c3sc4ccc(Cl)cc4c3C)c2)ccc1CCC(=O)O`: in experiment [4], the IC50 is 9.34 µM.
